# Reference: patent US6675105B2, “Structure-based identification of candidate compounds using three dimensional structures and models of Fc receptors” (Ilexus Pty Limited, priority 1998, dated 2004)
# Experiments:
# [1] = test system: monomeric human immunoglobulin IgG1; test: BIAcore binding of PsFcγRIIa to immobilized monomeric human IgG1; conditions: 22° C., HBS pH 7.4
# Procedure: (§1) Analysis of the interaction between PsFcγRIIa and monomeric immunoglobulin was performed using a BIAcorea 2000 biosensor (available from Pharmacia Biotech, Uppsala, Sweden) at about 22° C. in Hepes buffered saline (HBS; 10 mM Hepes [N-2-hydroxyethylpiperazine-N′-2-ethanesulfonic acid, available from Commonwealth Serum Laboratories, Parkville, Australia], pH 7.4, 150 mM NaCl, 3.4 mM EDTA and 0.005% Surfactant, available from Pharmacia). About 4000 to about 6000 response units (RU) of monomeric human immunoglobulin subclasses IgG1, IgG2, IgG3, and IgE (50 μg/ml of each) were covalently coupled to separate carboxymethylated dextran surface of each CM5 sensor-chips (available from BIAcore, Uppsala, Sweden) using a amine coupling kit (available from BIAcore), according to manufacturer's methods. A series of PsFcγRIIa concentrations (about 0.001 to about 1 mg/ml protein) was injected over each sensor-chip surface for about 1 minute at about 20 μl/min followed by about 3 minute dissociation phase. Following administration of the protein, the immunoglobulin surface was regenerated on each chip using a buffer containing 50 mM diethylamine pH 11.5, and 1 M NaCl. […]
# [2] = test system: monomeric human immunoglobulin IgG3; test: BIAcore binding of PsFcγRIIa to immobilized monomeric human IgG3; conditions: two site binding fit, 22° C., HBS pH 7.4
# Procedure: as §1
# monomeric human immunoglobulin IgG1, sequence (P01857 99-223 limits assumed): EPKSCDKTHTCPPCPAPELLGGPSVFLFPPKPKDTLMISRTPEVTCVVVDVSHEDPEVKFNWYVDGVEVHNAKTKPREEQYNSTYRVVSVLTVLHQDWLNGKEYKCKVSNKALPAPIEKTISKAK
# monomeric human immunoglobulin IgG3, sequence (P01860 99-377 isoform P01860-1 limits assumed): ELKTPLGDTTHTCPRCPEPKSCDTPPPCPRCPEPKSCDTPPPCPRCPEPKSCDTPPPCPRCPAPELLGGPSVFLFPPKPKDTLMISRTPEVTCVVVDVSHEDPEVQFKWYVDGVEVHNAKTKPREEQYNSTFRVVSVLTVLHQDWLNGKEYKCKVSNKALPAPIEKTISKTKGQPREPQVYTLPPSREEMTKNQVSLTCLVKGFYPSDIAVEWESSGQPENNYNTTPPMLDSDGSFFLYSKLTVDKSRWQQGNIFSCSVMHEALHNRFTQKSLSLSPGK
substance,measurement,setting,value
"PsFcγRIIa: recombinant soluble human FcγRIIa protein from baculovirus-infected Sf-21 cells; two species, SEQ ID NO:3 and SEQ ID NO:12",affinity of PsFcγRIIa for IgG1,[1]; at about 90% of the ligand binding sites,about 2.1×10^6 M^−1
same,affinity of PsFcγRIIa for IgG1,[1]; at the remaining 10% of sites,about 2.3×10^4 M^−1
same,affinity for IgG3,[2]; at 50% of the sites,about 2.7×10^6 M^−1
same,affinity for IgG3,[2]; at the remaining 50% of the sites,about 1.2×10^4 M^−1
